Measurements as given in US20240366567A1, “PHARMACEUTICAL COMBINATIONS COMPRISING A KRAS G12C INHIBITOR AND USES THEREOF FOR THE TREATMENT OF CANCERS” (NOVARTIS AG, priority 2021, published 2024).

Assays:
[1] = test system: KRAS G12C, PIK3CA and CDKN2A-mutated LU99 xenograft; experiment: LU99 xenograft, single agent and double, triple, quadruple combinations (Example 8); assay type: in vivo, mice; conditions: 7.5 mg/kg daily
[2] = test system: KRAS G12C and CDKN2A-mutated LU99 xenograft; experiment: LU99 xenograft, Compound A with ribociclib (Example 7); assay type: in vivo; conditions: LU99 xenograft in mice

SMILES | effect on tumor growth compared to the vehicle group [1] | effect on tumor growth [2]
C[C@@H]1OCC2(CCN(c3cnc(Sc4ccnc(N)c4Cl)c(N)n3)CC2)[C@@H]1N [TNO155, (3S,4S)-8-(6-amino-5-((2-amino-3-chloropyridin-4-yl)thio)pyrazin-2-yl)-3-methyl-2-oxa-8-azaspiro[4.5]decan-4-amine, reference compound] | did not have any effect on tumor growth | –
CN(C)C(=O)c1cc2cnc(Nc3ccc(N4CCNCC4)cn3)nc2n1C1CCCC1 [ribociclib, reference compound] | – | did not have any effect on tumor growth
